This is an account of results in PubChem BioAssay AID248 (DTP/NCI, 2004).

The assay concerns L1210 leukemia ip in BDF1 mice, survival T/C. As to the kind of experiment: NCI In Vivo Anticancer Drug Screen. Data for tumor model L1210 Leukemia (intraperitoneal) in B6D2F1 (BDF1) mice. As to conditions: endpoint: mean survival time, higher = longer survival. The essentials: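 Transplanted-tumor mice were given test agent; controls received vehicle only. Survival readings from the two groups were divided (treated over control).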

Where [1] appears, read: dose: 100.0 mg/kg/injection, schedule: Q01DX009 (ip), vehicle: saline with Tween-80.
[2] abbreviates: dose: 100.0 mg/kg/injection, schedule: Q04DX003 (ip), vehicle: saline with Tween-80.
Setting [3] is: dose: 200.0 mg/kg/injection, schedule: Q01DX009 (ip), vehicle: saline with Tween-80.
The mark [4] stands for this setting: dose: 200.0 mg/kg/injection, schedule: Q04DX003 (ip), vehicle: saline with Tween-80.
The mark [5] stands for this setting: dose: 400.0 mg/kg/injection, schedule: Q01DX009 (ip), vehicle: saline with Tween-80.
Where [6] appears, read: dose: 400.0 mg/kg/injection, schedule: Q04DX003 (ip), vehicle: saline with Tween-80.
[7] abbreviates: dose: 12.5 mg/kg/injection, schedule: Q04DX002 (ip), vehicle: Klucel (hydroxypropylcellulose) (HPC).
Setting [8] is: dose: 25.0 mg/kg/injection, schedule: Q04DX002 (ip), vehicle: Klucel (hydroxypropylcellulose) (HPC).
Where [9] appears, read: dose: 50.0 mg/kg/injection, schedule: Q04DX002 (ip), vehicle: Klucel (hydroxypropylcellulose) (HPC).
The mark [10] stands for this setting: dose: 100.0 mg/kg/injection, schedule: Q04DX003 (ip), vehicle: Klucel (hydroxypropylcellulose) (HPC).
Setting [11] is: dose: 200.0 mg/kg/injection, schedule: Q04DX003 (ip), vehicle: Klucel (hydroxypropylcellulose) (HPC).
[12] abbreviates: dose: 400.0 mg/kg/injection, schedule: Q04DX003 (ip), vehicle: Klucel (hydroxypropylcellulose) (HPC).
The mark [13] stands for this setting: dose: 100.0 mg/kg/injection, schedule: Q01DX001 (ip), vehicle: Klucel (hydroxypropylcellulose) (HPC).
[14] abbreviates: dose: 200.0 mg/kg/injection, schedule: Q01DX001 (ip), vehicle: Klucel (hydroxypropylcellulose) (HPC).
Where [15] appears, read: dose: 400.0 mg/kg/injection, schedule: Q01DX001 (ip), vehicle: Klucel (hydroxypropylcellulose) (HPC).
Setting [16] is: dose: 100.0 mg/kg/injection, schedule: Q01DX009 (ip), vehicle: saline.
[17] abbreviates: dose: 200.0 mg/kg/injection, schedule: Q01DX009 (ip), vehicle: saline.
[18] abbreviates: dose: 100.0 mg/kg/injection, schedule: Q01DX001 (ip), vehicle: saline.
Where [19] appears, read: dose: 200.0 mg/kg/injection, schedule: Q01DX001 (ip), vehicle: saline.
Where [20] appears, read: dose: 400.0 mg/kg/injection, schedule: Q01DX001 (ip), vehicle: saline.

Molecules are shown by their SMILES. “And” between values parts separate entries of the source, which are not always exact repeats. Equal entries are not always repeated. Inconclusive results and toxic doses are left out.

As to `Cc1c(C#N)c2n(c1C)CCCC(=O)N2`, the T/C (dose: 50.0 mg/kg/injection, schedule: Q01DX009 (ip), vehicle: saline with Tween-80) is 91 % of control; the T/C (dose: 50.0 mg/kg/injection, schedule: Q04DX003 (ip), vehicle: saline with Tween-80) is 101 % of control; the T/C under setting [1] was 90 % of control; the T/C under setting [2] was 88 % of control; the T/C under setting [3] is 91 % of control; the T/C under setting [4] is 97 % of control. The T/C under setting [5] was 88 % of control and the T/C under setting [6] was 92 % of control.
For the molecule `COc1ccc(Oc2cccc3c2CCN(C)C3)cc1`, the T/C was 102 % of control under setting [7], 115 % of control under setting [8] and 97 % of control under setting [9].
For the molecule `C1#CCCCCCC#CCCCC1`, the T/C (dose: 37.5 mg/kg/injection, schedule: Q01DX009 (ip), vehicle: acetone) was 89 % of control; the T/C (dose: 75.0 mg/kg/injection, schedule: Q01DX001 (ip), vehicle: acetone) is 91 % of control; the T/C (dose: 75.0 mg/kg/injection, schedule: Q01DX009 (ip), vehicle: acetone) is 97 % of control; the T/C (dose: 150.0 mg/kg/injection, schedule: Q01DX001 (ip), vehicle: acetone) was 94 % of control; the T/C (dose: 150.0 mg/kg/injection, schedule: Q01DX009 (ip), vehicle: acetone) is 98 % of control.
Turning to `C=CC[S][Pb]([c]1ccccc1)([c]1ccccc1)[c]1ccccc1`, the T/C was 106 % of control (dose: 3.0 mg/kg/injection, schedule: Q01DX009 (ip), vehicle: Klucel (hydroxypropylcellulose) (HPC)); 90 % of control (dose: 6.0 mg/kg/injection, schedule: Q01DX009 (ip), vehicle: Klucel (hydroxypropylcellulose) (HPC)); 103 % of control under setting [7]; 91 % of control under setting [8].
For `COc1ccc2c(c1)CNC1c3cc(OC)c(O)cc3CC21` (configuration not stated), the T/C under setting [4] was 88 % of control.
In the case of `C/C(=N\O)C1(O)CCCCC1`, the T/C (dose: 100.0 mg/kg/injection, schedule: Q01DX009 (ip), vehicle: Klucel (hydroxypropylcellulose) (HPC)) is 98 % of control; the T/C under setting [10] was 103 % of control; the T/C (dose: 200.0 mg/kg/injection, schedule: Q01DX009 (ip), vehicle: Klucel (hydroxypropylcellulose) (HPC)) is 93 % of control; the T/C under setting [11] is 101 % of control; the T/C (dose: 400.0 mg/kg/injection, schedule: Q01DX009 (ip), vehicle: Klucel (hydroxypropylcellulose) (HPC)) is 96 % of control; the T/C under setting [12] is 108 % of control.
Turning to `Oc1cc(Br)c(O)c(Br)c1`, the T/C by setting is: under setting [8], 109 % of control; under setting [9], 102 % of control; (dose: 100.0 mg/kg/injection, schedule: Q04DX002 (ip), vehicle: Klucel (hydroxypropylcellulose) (HPC)) 97 % of control; (dose: 400.0 mg/kg/injection, schedule: Q04DX002 (ip), vehicle: Klucel (hydroxypropylcellulose) (HPC)) 90 % of control.
As for `c1ccc(C2=NNC(c3ccccc3)=C(c3ccccc3)C2)cc1`, the T/C was 89 % of control under setting [13]; 98 % of control under setting [10]; 103 % of control under setting [14]; 100 % of control under setting [11]; 101 % of control under setting [15]; 100 % of control under setting [12].
Take `COc1ccc(N=Cc2cc(Br)cc(Br)c2O)cc1.COc1ccc(N=Cc2cc(Br)cc(Br)c2O)cc1.[Co]`: the T/C by setting is: (dose: 50.0 mg/kg/injection, schedule: Q04DX003 (ip), vehicle: saline) 92 % of control; (dose: 100.0 mg/kg/injection, schedule: Q04DX003 (ip), vehicle: saline) 92 % of control; (dose: 200.0 mg/kg/injection, schedule: Q04DX003 (ip), vehicle: saline) 95 % of control.
Regarding `CC1([N+](=O)[O-])COP(=O)(OP2(=O)OCC(C)([N+](=O)[O-])CO2)OC1` (configuration not stated), the T/C reads like this: (dose: 100.0 mg/kg/injection, schedule: Q01DX001 (ip), vehicle: carboxymethylcellulose (CMC)) 108 % of control; (dose: 200.0 mg/kg/injection, schedule: Q01DX001 (ip), vehicle: carboxymethylcellulose (CMC)) 101 % of control; (dose: 400.0 mg/kg/injection, schedule: Q01DX001 (ip), vehicle: carboxymethylcellulose (CMC)) 103 % of control.
In the case of `O=[N+]([O-])CC(Nc1ccc(Br)cc1)c1ccccc1` (configuration not stated), the T/C runs as follows: (dose: 67.0 mg/kg/injection, schedule: Q01DX009 (ip), vehicle: saline with Tween-80) 95 % of control; under setting [1], 97 % of control; (dose: 150.0 mg/kg/injection, schedule: Q01DX009 (ip), vehicle: saline with Tween-80) 100 % of control; under setting [3], 91 % of control; under setting [5], 86 % of control.
`COc1cc(C=Nc2cc(Br)c(O)c(Br)c2)ccc1N(CCCl)CCCl`: the T/C is 101 % of control (dose: 6.4 mg/kg/injection, schedule: Q01DX009 (ip), vehicle: carboxymethylcellulose (CMC)); 104 % of control (dose: 9.8 mg/kg/injection, schedule: Q01DX001 (ip), vehicle: carboxymethylcellulose (CMC)); 103 % of control and 111 % of control (dose: 14.6 mg/kg/injection, schedule: Q01DX009 (ip), vehicle: carboxymethylcellulose (CMC)); 177 % of control (dose: 22.0 mg/kg/injection, schedule: Q01DX001 (ip), vehicle: carboxymethylcellulose (CMC)); 94 % of control (dose: 22.0 mg/kg/injection, schedule: Q01DX009 (ip), vehicle: carboxymethylcellulose (CMC)); 153 % of control (dose: 25.0 mg/kg/injection, schedule: Q01DX001 (ip), vehicle: carboxymethylcellulose (CMC)). Moreover, the T/C (dose: 50.0 mg/kg/injection, schedule: Q01DX001 (ip), vehicle: carboxymethylcellulose (CMC)) is 161 % of control.
`O=c1c2ccccc2sc2cccc(Sc3ccccc3)c12`: the T/C reads like this: under setting [1], 101 % of control; under setting [3], 98 % of control; under setting [5], 98 % of control.
`CC(=O)OCC1OC(Oc2ccc([N+](=O)[O-])cc2[N+](=O)[O-])C(OC(C)=O)C(OC(C)=O)C1OC(C)=O` (configuration not stated): the T/C under setting [2] was 100 % of control, the T/C under setting [4] was 91 % of control and the T/C under setting [6] is 91 % of control.
On to `CSc1ncnc2c1nc[n]2[Sn]([c]1ccccc1)([c]1ccccc1)[c]1ccccc1.CSc1ncnc2nc[nH]c12`, for which the T/C is 108 % of control (dose: 5.0 mg/kg/injection, schedule: Q01DX001 (ip), vehicle: other); 104 % of control (dose: 10.0 mg/kg/injection, schedule: Q01DX001 (ip), vehicle: other); 111 % of control (dose: 20.0 mg/kg/injection, schedule: Q01DX001 (ip), vehicle: other).
For `N#CC1C(=O)NC(=O)C(C#N)C12CCN(Cc1ccccc1)CC2` (configuration not stated), the T/C under setting [13] is 102 % of control, the T/C under setting [14] was 97 % of control and the T/C under setting [15] is 103 % of control.
As to `CCC1CCC(NC(C)=O)CC1` (configuration not stated), the T/C is 96 % of control (dose: 25.0 mg/kg/injection, schedule: Q01DX001 (ip), vehicle: saline with Tween-80); 108 % of control (dose: 50.0 mg/kg/injection, schedule: Q01DX001 (ip), vehicle: saline with Tween-80); 94 % of control (dose: 100.0 mg/kg/injection, schedule: Q01DX001 (ip), vehicle: saline with Tween-80).
With `C/C=C/C(=O)OC`, the T/C runs as follows: under setting [16], 101 % of control; under setting [17], 102 % of control; (dose: 400.0 mg/kg/injection, schedule: Q01DX009 (ip), vehicle: saline) 104 % of control.
`O=[N+]([O-])C1C(O)CCCC1O` (configuration not stated): the T/C under setting [18] is 102 % of control, the T/C under setting [19] was 102 % of control and the T/C under setting [20] was 105 % of control.
As for `O=C(NCCc1cnc[nH]1)C(F)(F)F`, the T/C was 96 % of control (dose: 50.0 mg/kg/injection, schedule: Q01DX009 (ip), vehicle: saline); 96 % of control under setting [16]; 100 % of control under setting [17].
With `Cc1cc(C)c(Br)c(C)c1C`, the T/C was 104 % of control under setting [18], 113 % of control under setting [19] and 116 % of control under setting [20].
